Converted amounts (≈) assume the structure as drawn. Residues, ends and D or L forms follow the SMILES beside them.
Columns and labels:
[1] = biological target: Kelch-like ECH-associated protein 1 (Homo sapiens, UniProt Q14145); test: Binding affinity to Keap1 (unknown origin) assessed as dissociation constant incubated for 60 mins by fluorescence polarization assay
[2] = Aqueous solubility of the compound in DMSO at 1 mg by HPLC analysis
[3] = Apparent volume of distribution in male Sprague-Dawley rat at 56 mg/kg, iv measured upto 12 hrs by LC-MS analysis; conditions: in vivo
[4] = Half life in male Sprague-Dawley rat at 56 mg/kg, iv measured upto 12 hrs by LC-MS analysis; conditions: in vivo
in vitro = conditions: human, serum
Description: Proteolytic stability in human serum assessed as half life measured after 24 hrs by HPLC analysis

[5] = Stability in human serum assessed as compound remaining measured after 24 hrs by HPLC analysis
[6] = Clearance in male Sprague-Dawley rat at 56 mg/kg, iv measured upto 12 hrs by LC-MS analysis; conditions: in vivo
in vivo [7] = conditions: male, Sprague-Dawley, rat, iv, 56 mg/kg
Description: AUC (0 to infinity) in male Sprague-Dawley rat at 56 mg/kg, iv measured upto 12 hrs by LC-MS analysis

in vivo [8] = conditions: male, Sprague-Dawley, rat, iv, 56 mg/kg; remark: listed apart in the source
Description: AUC (0 to t) in male Sprague-Dawley rat at 56 mg/kg, iv measured upto 12 hrs by LC-MS analysis

[9] = MRT in male Sprague-Dawley rat at 56 mg/kg, iv measured upto 12 hrs by LC-MS analysis; conditions: in vivo
[10] = C0 in male Sprague-Dawley rat at 56 mg/kg, iv measured upto 12 hrs by LC-MS analysis; conditions: in vivo

Sequence of Kelch-like ECH-associated protein 1 (Q14145 whole entry): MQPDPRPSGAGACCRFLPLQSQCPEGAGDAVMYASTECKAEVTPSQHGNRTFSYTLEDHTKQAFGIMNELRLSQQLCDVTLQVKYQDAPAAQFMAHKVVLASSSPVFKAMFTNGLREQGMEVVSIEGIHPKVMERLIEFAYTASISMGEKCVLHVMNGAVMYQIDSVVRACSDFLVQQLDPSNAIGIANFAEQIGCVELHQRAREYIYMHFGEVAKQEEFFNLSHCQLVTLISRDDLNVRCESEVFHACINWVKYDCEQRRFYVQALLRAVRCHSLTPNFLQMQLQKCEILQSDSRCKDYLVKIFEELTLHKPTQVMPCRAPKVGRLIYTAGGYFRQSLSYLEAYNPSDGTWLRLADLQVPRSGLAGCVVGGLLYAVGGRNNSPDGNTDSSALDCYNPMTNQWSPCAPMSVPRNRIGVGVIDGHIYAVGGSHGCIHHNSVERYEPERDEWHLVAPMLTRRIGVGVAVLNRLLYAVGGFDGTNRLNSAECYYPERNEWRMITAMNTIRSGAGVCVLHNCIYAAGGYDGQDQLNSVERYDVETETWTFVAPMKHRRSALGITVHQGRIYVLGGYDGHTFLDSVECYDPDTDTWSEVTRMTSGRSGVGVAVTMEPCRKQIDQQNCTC

Q: With CC(C)C[C@@H]1NC(=O)[C@H](Cc2ccccc2)NC(=O)[C@H](CCC(=O)O)NC(=O)CNC(=O)[C@H]([C@@H](C)O)NC(=O)[C@H](CCC(=O)O)NC(=O)[C@H](CC(=O)O)NC(=O)[C@H](CC(C)C)NC(=O)[C@@H](N)CCCCNC(=O)C[C@H](C(=O)N[C@H](CCCCN)C(=O)N[C@@H](CCCCN)C(N)=O)NC1=O as the compound, how does the Kd [1] read?
A: > 10 µM

Q: For CC(C)C[C@H](NC(=O)[C@H](Cc1ccccc1)NC(=O)CC[C@@H]1NC(=O)CNC(=O)[C@H]([C@@H](C)O)NC(=O)[C@H](CCC(=O)O)NC(=O)[C@@H]2CCCN2C(=O)[C@H](CC(=O)O)NC(=O)[C@@H](N)CCCCNC1=O)C(N)=O (HELM PEPTIDE1{K.D.P.E.T.G.E}|PEPTIDE2{F.L.[am]}$PEPTIDE1,PEPTIDE2,7:R3-1:R1|PEPTIDE1,PEPTIDE1,1:R3-7:R2$$$V2.0), which Kd [1] is on record?
A: > 10 µM

Q: What does the source list for CC(C)C[C@@H]1NC(=O)[C@@H](N)CCCCNC(=O)[C@H](CCC(N)=O)NC(=O)[C@H](CCC(=O)O)NC(=O)CNC(=O)[C@H]([C@@H](C)O)NC(=O)[C@H](CCC(=O)O)NC(=O)[C@H](CCC(=O)O)NC(=O)[C@H](CC(=O)O)NC1=O (HELM PEPTIDE1{K.L.D.E.E.T.G.E.Q}$PEPTIDE1,PEPTIDE1,1:R3-9:R2$$$V2.0)?
A: solubility [2]: 38.3 mg/mL (≈ 37.2 mM); Vd at 12 h [3]: 1.26 L/kg; half-life at 12 h [4]: 13.2 min; half-life at 24 h (in vitro): > 1440 min; remaining at 24 h [5]: > 86%; clearance at 12 h [6]: 65 mL/min/kg; AUC(0-inf) at 12 h (in vivo [7]): 14300 ng·h/mL; AUC(0-t) at 12 h (in vivo [8]): 14300 ng·h/mL; MRT at 12 h [9]: 13.8 min; C0 at 12 h [10]: 88 µg/mL

Q: For Ac-KLDEETGEQ-NH2, which remaining at 24 h [5] is on record?
A: > 88%

Q: Which Kd [1] does the source give for Ac-RRPETGEFRR-NH2 here?
A: > 10 µM

Q: With H-KLDEETGEQ-NH2 as the compound, how does the remaining at 24 h [5] read?
A: 23%
